Experiments:
[1] = target: T1, DddK Pu (dimethylsulfoniopropionate (DMSP) lyase from Pelagibacter ubique HTCC1062) (Candidatus Pelagibacter communis, UniProt Q4FNM4); assay: end-point assay of acrylate consumption (aza-Michael addition); format: biochemical; conditions: co-substrate sodium acrylate 100 mM; pyrrolidine 100 mM; 50 mM triethanolamine pH 8.0, 25 °C; promiscuous activity
T1 construct: gene SAR11_0394; His-tagged wild type, tag kept, recombinant in E. coli, purified; metals as isolated mainly Zn, Fe, Ni
T1 sequence (Q4FNM4 1-130): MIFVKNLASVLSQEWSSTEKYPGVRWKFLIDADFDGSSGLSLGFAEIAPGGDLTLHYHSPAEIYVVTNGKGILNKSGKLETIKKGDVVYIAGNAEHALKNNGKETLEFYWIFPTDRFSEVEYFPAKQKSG

[2] = target: T1, DddK Pu (dimethylsulfoniopropionate (DMSP) lyase from Pelagibacter ubique HTCC1062); assay: HPLC end-point assay of acrylate formation; format: biochemical; conditions: 50 mM triethanolamine pH 8.0, 25 °C; enzyme as isolated (mainly Zn, Fe, Ni)

| Structure (SMILES) | end-point assay of acrylate consumption (aza-Michael addition) [1] | HPLC end-point assay of acrylate formation [2] |
| --- | --- | --- |
| C1CCNC1 [6c, pyrrolidine] | Pyrrolidine (6c) was by far the most active secondary amine | – |
| C[S+](C)CCC(=O)[O-] [compound 1, DMSP] | – | The specific activity of DddK Pu was determined by the endpoint method |

Source: PMC12582016, “Cupin‐Type Dimethylsulfoniopropionate Lyase from Pelagibacter ubique (DddK Pu ) Catalyzes Aza‐Michael Addition of Primary and Secondary Amines to Acrylic Acid” (Angewandte Chemie (International Ed. in English), 2025)
